Consider five substances from publication PMC7922534, “Searching for Peptide Inhibitors of T Regulatory Cell Activity by Targeting Specific Domains of FOXP3 Transcription Factor” (Biomedicines, 2021).

The test system of one data set is FOXP3/NFAT1. The data set is described as follows: FOXP3/NFAT interaction by Alphascreen. Format: binding. The settings on record: alpha screen; Figure 6C. The procedure:
(§1) The screening of peptide binders to FOXP3 was performed by surface plasmon resonance (SPR) using a ProteOn XPR36 (Bio-Rad, Hercules CA, USA) optical biosensor. Recombinant protein FOXP3-6His produced and purified from E-coli was immobilized covalently onto a GLC sensor chip (Bio-Rad) using the coupling reagents sulfo-NHS (N-Hydroxysulfosuccinimide) and EDC (1-Ethyl-3-(3-dimethylaminopropyl) carbodiimide, (Bio-Rad) as previously described. Peptide solutions (10 μM) were injected by triplicate in running buffer (phosphate-buffered saline, 0.005% (v/v) Tween 20, pH 7.4) at a flow of 30 μL/min. The interspot signal (obtained in the chip surface not immobilized with protein) was used as reference. FOXP3/NFAT1 and FOXP3/AML1 interactions were analyzed by Alphascreen technology as previously described according to the manufacturer’s protocol (Perkin Elmer, Benelux). Reactions were performed in a 40 μL final volume in 96-well Optiwell microtiter plates (Perkin Elmer). […] FOXP3/AML1 interaction was measured following a similar protocol using FOXP3-GST and AML1-His proteins. Exposure of the reaction to direct light was avoided as much as possible, and the emission of light from the acceptor beads was measured in the EnVision plate reader after the indicated incubation period (Perkin Elmer, Benelux).
For orientation: In Alpha technology, singlet oxygen from a donor bead excites a nearby acceptor bead.

The subject of data set [1] is murine CD4+CD25+ Treg cells. The data set is described as follows: In vitro Treg inhibition: anti-CD3 stimulated effector T cells co-cultured with Treg cells, tritiated thymidine incorporation. Format: cell-based, mouse. Particulars: peptide 50 μM, BALB/c Teff 10^5 + Treg 10^4 cells/well, 3 days, tritiated thymidine. The procedure: (§2) In vitro assays were carried out using (i) the Karpas 299 human cell line (ACC-31, DSMZ, Germany), derived from a human lymphoma with a regulatory T cell profile or (ii) using natural Treg cells isolated from the murine splenocytes. To evaluate the effect of peptides on the immunosuppressive activity of the Karpas 299 cell line, a “mixed lymphocyte reaction” (MLR) assay was carried out using peripheral blood mononuclear cells (PBMCs) from two donors (previously tested to induce a strong MLR reaction in co-culture) (1 × 10^5 cells/well per each PBMC) in the presence or absence of Karpas 299 (1 × 10^4 cells/well). Peptides were added at 50 μM to the co-cultures to evaluate their capacity to restore the production of interferon-gamma (IFN-γ) inhibited by Karpas 299. After 48 hours, the supernatants were extracted to measure interferon-gamma (IFN-γ) by means of a commercial ELISA (Pharmingen, San Diego, CA, US). In vitro assays for Treg inhibition using natural Treg cells: Murine CD4+CD25+ (Treg cells), and CD4+CD25-T-cells (effector T cells) were purified from murine spleen cells by using a murine regulatory T-cell isolation kit (Miltenyi Biotec, Bergisch Gladbach, Germany) according to the manufacturer’s instructions. The purity of the resulting T-cell populations was confirmed to be >95% by flow cytometry. Inhibition of murine T regulatory cell function was measured in an in vitro assay of T-cell stimulation. Effector T cells (10^5 cells/well) from BALB/c mice were stimulated in vitro with 2, 5 μg/mL of anti-mouse CD3 antibody (Pharmingen) in the presence/absence of purified Treg cells (10^4 cells/well) and the indicated peptides (50 μM). T-cell proliferation was measured 3 days later as previously described. Percentage of Treg inhibition was calculated using the following formula: % inhibition= 100*((cpm of Teff&Treg co-cultures in the presence of peptide - cpm of Teff&Treg co-cultures)/(cpm of Teff - cpm of Teff&Treg co-cultures)). The Institutional Review Board on Human Subjects (Clínica Universidad de Navarra, Ref 2016.118) approved this research, and informed consent was obtained from all blood donors.
(In general: Incorporation of labelled thymidine or its analogues reports DNA synthesis.)

The next data set concerns Foxp3–NFAT interaction. The data set is described as follows: Co-immunoprecipitation and Western blot of Flag-Foxp3 and HA-NFAT in HEK293 cells. Particulars: HEK293 cells transfected with Flag-Foxp3 and HA-NFAT, peptide 100 μM; Figure 7. Type of data set: cell-based. The procedure:
HEK293 cells were cultured in Dulbecco modified Eagle medium (Invitrogen) supplemented with 8% heat-inactivated fetal calf serum (FCS), penicillin, and streptomycin (Invitrogen) at 37 °C and 5% CO2. Plasmids cells were grown to 50% confluence in 6-well plates (Nunc) and transfected with a mixture of 2 μg of DNA plasmids (1 μg of FLAG-FOXP3 (expressing Foxp3 linked to the DYKDDDDK peptide tag and 1 μg of HA-NFAT expressing NFAT linked to the […] peptide tag), kindly provided by Dr Paul, Coffer, Utrech, The Netherlands)) and 8 μL PEI (polyethylenimine) overnight; the next day, cells were treated with 393–403 L, 397–406 C, or an irrelevant peptide at 100 μM. Twenty four hour later, HEK 293 cells were lysed in NP40 lysis buffer (0.05 M Tris-HCl pH 7.5, 0.5% Nonidet P40, 0.15 M NaCl, 0.01 M EDTA) containing a HALT^TM protease inhibitor cocktail (ThermoScientific), and immunoprecipitation was performed utilizing anti-FLAG coupled beads (Sigma) during 2 h at 4 C. Beads were washed 3x in lysis buffer, boiled, and samples were separated by SDS-PAGE, electrophoretically transferred to polyvinylidene difluoride membrane (Millipore, Bedford, MA), and hybridized with antibodies as indicated. Immunocomplexes were detected using enhanced chemiluminescence (Biorad).

The subject of a further data set is T-cells. The settings on record: cited from earlier work. From the text: We focused on a peptide encompassing aminoacids 393–403, which correspond to a region implicated in FOXP/NFAT interaction, which is also key for Treg suppressive activity. FOXP3/NFAT interaction can regulate NFAT activity by (i) competing for binding to DNA [60, 61], (ii) by sequestering NFAT or other NFAT partners, or (iii) by forming a cooperative complex. The cooperative complex between FOXP3 and NFAT is required to repress the expression of the cytokine IL2, upregulate the expression of the Treg markers CTLA4 and CD25, and confer suppressor function. ...

The next data set has as its system FOXP3:NFAT. Particulars: cited from earlier work. From the text:
(§3) We have also focused on the screening campaign of peptides derived from the FOXP3 FKH domain (Section 3.3). Although we identified several peptides encompassing the intermediate region of FKH with high capacity to bind to FOXP3, we focused on peptide […]-407, based on its ability to inhibit Treg activity in vitro.

For data set [2] the following is noted: cited from earlier work.
Source text: as §3

The test system of a further data set is hepatocellular carcinoma. Particulars: murine model of hepatocellular carcinoma; cited from earlier work.
Source text: as §3

Data set [3] relates to FOXP3 homodimerization. Put plainly: FOXP3 dimerization by Alphascreen. Type of data set: binding. The settings on record: alpha screen.
The next data set deals with 4T1-FOXP3 cells. Put plainly: Proliferation of 4T1-Ctrl and 4T1-FOXP3 tumor cells in vitro. Format: cell-based. The settings on record: peptide 50 μM, Figure 2C. The procedure:
The cell line 4T1-FOXP3 expressing FOXP3 was generated. 4T1-WT cells were transfected with empty pcDNA3.1 or with pcDNA3.1 FOXP3, expressing FOXP3 gene and neomycin (which confers resistance to G418 antibiotic) to generate 4T1-Ctrl and 4T1-Foxp3 cells. Briefly, 8 × 10^5 cells were seeded in 6-well culture plates one day prior to transfection. The cultures were 60–80% confluent at the time of transfection. Cells were transfected with 5 ug plasmid DNA per well for 6 hours using lipofectimine 2000 transfection reagent (Invitrogen). After 48 hours, 0.3 mg/mL of G418 drug (GIBCO) was added to the culture during 14 days for the selection of resistant cells. These cells were used in vitro to measure the effect of peptides to overcome the proliferative capacity inhibited by FOXP3. In addition, 4T1-FOXP3 and 4T1-Ctrl cells were injected in vivo (10^5 cells/ mouse) subcutaneously or intravenously to compare their capacity to induce tumors and lung metastases. Murine Lewis lung carcinoma expressing OVA, LLCOVA were kindly provided by Dr. Daniel Ajona (CIMA). The murine colon adenocarcinoma cell line MC38, LLOOVA, 4T1-Ctrl, and 4T1-FOXP3 were cultured in mouse medium (RPMI 1640, 10% fetal calf serum (Sigma), 100 U/mL penicillin, 100 μg/mL streptomycin (Invitrogene), […] Gentamicin (Gibco), 2 mM L-Glutamine (Lifetechnologies), […] β-mercaptoethanol (Sigma), and fungizone (GIBCO). All cell lines were cultured at 37 °C in a humidified atmosphere with 6.5% CO2.

Data set [4] has as its system Karpas 299 human cell line. Put plainly: Mixed lymphocyte reaction with Karpas 299 Treg cell line, IFN-γ by ELISA. Particulars: MLR of PBMCs from two donors + Karpas 299, peptide 50 μM, 48 h. Type of data set: cell-based. The procedure: as §2
The test system of data set [5] is FOXP3/AML1. The settings on record: cited from earlier work. From the text:
(§4) A P60 peptide optimization program including alanine scanning, the introduction of D-aminoacids, or head-to-tail cyclization allowed us to improve its stability and efficacy in vitro and in vivo [23].

Data set [6] relates to FOXP3 homodimerization. The settings on record: cited from earlier work.
Source text: as §4

A further data set concerns FOXP3. The settings on record: cited from earlier work. The procedure:
(§5) The P60 peptide was able to improve the antitumor effect of other immunotherapeutic approaches constituting a potential candidate drug to inhibit Treg activity. An alanine scanning was conducted to identify key positions within the P60 sequence for FOXP3 binding P60. The introduct ...

The conditions of data set [7]: cited from earlier work. The procedure:
as §5
This is another data set of the same source.

Another data set deals with Treg. Particulars: cited from earlier work. The procedure: as §5
Data set [8] deals with FOXP3/AML1. The data set is described as follows: FOXP3/AML1 interaction by Alphascreen. Type of data set: binding. Particulars: Figure 3C. The procedure: as §1

For the substance “397–406 C: macrocycle consisting of a head-to-tail cyclization of peptide 397–406 (RVESEKGAVW; head-to-tail (backbone) cyclization)”, the “disruption of FOXP3-NFAT heterodimerization” value with FOXP3/NFAT1 is reported as “retained the activity to impair Foxp3/NFAT interaction”. Further, the “Treg inhibitory capacity in vitro (proliferation of effector T cells with anti-CD3 in presence of Treg)” value (from here on “Treg inhibitory capacity in vitro”) in data set [1] is on record as “improved the Treg inhibitory capacity”. Moreover, in the data set on Foxp3–NFAT interaction, the “interaction between Foxp3 and NFAT by co-immunoprecipitation” value is recorded as “able to reduce significantly the interaction”.

As for “KCFVRVESEKG [F393–403, truncated version of peptide F393–407]”, the “T-cell proliferation and cytokine production in response to TCR stimulation” value with T-cells was “enhanced T-cell proliferation and the production of cytokines IL-2, IFN-γ, or IL-17”. Further, the “Treg inhibitory capacity in vitro” value in data set [1] is given as “able to inhibit Treg activity in vitro”. In the data set on Foxp3–NFAT interaction, the “interaction between Foxp3 and NFAT by co-immunoprecipitation” value is recorded as “able to reduce significantly the interaction”. In addition, the “FOXP3:NFAT interaction” value in the data set on FOXP3:NFAT is recorded as “able to inhibit FOXP3:NFAT interaction”. In addition, the pharmacokinetics in vivo entry in data set [2] is “poor pharmacokinetics in vivo”. Moreover, the “antitumor activity of in vivo peptide administration” value in the data set with hepatocellular carcinoma is “had antitumor activity”.

As to “KEKLSAMQAHLAGKM [p250–265, 15-mer peptide from the leuzin zipper domain of FOXP3]”, the “inhibitory activity on FOXP3 homodimerization” value with FOXP3 homodimerization [3] was “could not demonstrate an inhibitory activity”. Besides, in data set [1], the “Treg inhibitory capacity in vitro” value was “able to fully restore the proliferative capacity of effector T-cells”.

On to RDFQSFRKMWPFFAM [p60], for which the “effect on tumor-suppressor activity of FOXP3 (proliferation of 4T1-FOXP3 versus 4T1-Ctrl cells)” value with 4T1-FOXP3 cells is “does not alter the antitumor activity of FOXP3”. For the same substance, in data set [4], the “Treg inhibitory capacity (Karpas MLR assays)” value is “potential Treg inhibitory capacity”. Moreover, in the data set with FOXP3/AML1 [5], the FOXP3/AML1 interaction result is given as “impairing”. Further, the FOXP3 dimerization entry in the data set with FOXP3 homodimerization [6] is given as “impairing FOXP3 dimerization”. The FOXP3 nuclear translocation entry in the data set with FOXP3 is reported as “impair FOXP3 nuclear translocation”. The “ability to enter into the cells” value in data set [7] is recorded as “able to enter into the cells”. Besides, the “Treg activity in vitro and in vivo” value in the data set on Treg was “inhibit Treg activity in vitro and in vivo”.

Turning to SLFAVRRHLWGSHGN [F304–318], in the data set with FOXP3/AML1 [8], the “disruption of FOXP3/AML1 heterodimerization” value is on record as “able to impair FOXP3/AML1 heterodimerization”. Besides, the “Treg inhibitory capacity in vitro” value in data set [1] is reported as “able to inhibit Treg activity”.
